This is an account of results in patent publication US11814376B2, “Hepatitis b core protein modulators” (Assembly Biosciences, Inc., priority 2015, dated 2023).

Series [1] relates to HBV viral load in AD38 cells. In words: Viral load production in AD38 cells, quantitative PCR of the core sequence in supernatant. The class given is cell-based. Particulars: Hepatitis B virus, 144 h, 10 μM compound, 6 days at 37° C., supernatant qPCR, relative to DMSO control; read-out: AD38 Viral Load (%) (VL with cmpd/VL in DMSO control) at 10 μM. On the procedure:
(§1) Example 2: Assay Measuring Activity of Compounds on Viral Production in and on Viability of AD38 Cells
(§2) AD38 cells were then re-suspended with 10 mL of Treatment Medium and counted. Wells of a collagen coated 96-well NUNC microtiter plate were seeded at 50,000/well in 180 μL of Treatment Medium, and 20 μL of in treatment media with either 10% DMSO (Control) or a 10× solution of compound in 10% DMSO was added. Plates were incubated for 6 days at 37° C.
Viral load production was assayed by quantitative PCR of the core sequence. […] The PCR mixture was incubated at 45° C. for 5 minutes, then 95° C. for 10 min, followed by 40 cycles of 10 seconds at 95° C. and 20 seconds at 60° C. Viral load was quantitated against known standards by using ViiA™ 7 Software. Viral load in the supernatant from wells with treated cells were compared against viral load in supernatant from DMSO control wells (>3 per plate).
Background: Quantitative PCR measures a nucleic acid by following its amplification.

For another series, the system named is AD38 cells. In words: Viability of AD38 cells (Promega CellTiter-Glo). The class given is cell-based. As to conditions: 10 μM compound, 6 days, CellTiter-Glo luminescence normalized to DMSO control (100%). On the procedure: as §1, §2
At the end of compound treatment period cell viability was assessed using a Promega CellTiter-Glo protocol. All supernatant was removed the previously treated 96-well microtiter plate, and 50 μL Tetracycline-free treatment medium (DMEM/F12 (1:1), 1× Pen/step (cat #: 30-002-CL, Mediatech, Inc), with 2% FBS, Tet-system approved (cat #: 631106, Clontech), and 1% DMSO was added back to each well. Another 50 μL of CellTiter-Glo reagent solution (Promega, G7573) was then added at room temperature and the contents mixed for 2 minutes on an orbital shaker to induce cell lysis. This was followed by incubation at room temperature for 10 minutes to stabilize the luminescent signal. The luminescence was recorded for 0.2 seconds per well on a Tecan multimode plate reader (Infinite M1000 pro). The luminescent signal from each well was normalized against that of untreated (DMSO) control wells. All results were reported percent viability (with controls being 100%).
A general note: Cellular ATP, detected with luciferase, serves as a proxy for viable cell number.

With `O=C(Nc1ncc(Cl)s1)c1ccc2c(c1)NC(=O)c1ccccc1S2(=O)=O` [compound 1473], the activity at 10 µM in series [1] was determined as 26.5%. Moreover, in the series on AD38 cells, the “AD38 Viability Normalized Result (cmpd/DMSO %) at 10 μM” value was 79%.
The corresponding values for `Cc1cc2c(cc1C(=O)NCc1cncs1)NC(=O)c1ccccc1S2` [compound 1496] are 9.6% and 57%.
On the same counts, the results for `O=C(NCc1cnc(-c2ccccc2)s1)c1ccc2c(c1)NC(=O)c1ccccc1S2(=O)=O` [compound 1525] are 0.2% and 104%.
The corresponding values for `Cc1ncc(CNC(=O)c2ccc3c(c2)NC(=O)c2ccccc2[S+]3[O-])s1` (stereo not shown) [compound 1526] are 0.8% and 94%.
For the compound `Cc1ncc(CNC(=O)c2ccc3c(c2)NC(=O)c2ccccc2S3(=O)=O)s1` [compound 1528], in series [1], the activity at 10 µM is 0.8%. Moreover, the “AD38 Viability Normalized Result (cmpd/DMSO %) at 10 μM” value with AD38 cells was 76%.
Turning to `Nc1ncc(CNC(=O)c2ccc3c(c2)NC(=O)c2ccccc2S3(=O)=O)s1` [compound 1529], in series [1], the activity at 10 µM is 2%. The “AD38 Viability Normalized Result (cmpd/DMSO %) at 10 μM” value with AD38 cells worked out at 97%.
Regarding `Cc1ncc(CNC(=O)c2ccc3c(c2C)NC(=O)c2ccccc2S3)s1` [compound 1535], the activity at 10 µM in series [1] amounted to 0.8%. Moreover, in the series with AD38 cells, the “AD38 Viability Normalized Result (cmpd/DMSO %) at 10 μM” value stood at 84%.
On the same counts, the results for `Cc1ncc(CNC(=O)c2ccc3c(c2)NC(=O)c2cc(Cl)ccc2S3)s1` [compound 1541] are 3.7% and 98%.
As for `Cc1ncc(CNC(=O)c2ccc3c(c2)NC(=O)c2ccc(Cl)cc2S3)s1` [compound 1544], in series [1], the activity at 10 µM was determined as 2.6%. The “AD38 Viability Normalized Result (cmpd/DMSO %) at 10 μM” value with AD38 cells is reported as 88%.
The corresponding values for `CC1c2ccc(C(=O)NCc3cncs3)cc2NC(=O)c2ccccc21` (stereo not shown) [compound 1546] are 2.2% and 97%.
Consider `Cc1ncc(CNC(=O)c2ccc3c(c2)NC(=O)c2ccccc2C3C)s1` (stereo not shown) [compound 1548], for which the activity at 10 µM in series [1] stood at 0.4%. Further, in the series with AD38 cells, the “AD38 Viability Normalized Result (cmpd/DMSO %) at 10 μM” value was 97%.
The corresponding values for `CC(C)(NC(=O)c1ccc2c(c1)NC(=O)c1ccccc1S2)c1cncs1` [compound 1549] are 106% and 105%.
On to `CC(C)(C)c1ncc(CNC(=O)c2ccc3c(c2)NC(=O)c2ccccc2S3(=O)=O)s1` [compound 1550], for which, in series [1], the activity at 10 µM came out at 4%. Moreover, the “AD38 Viability Normalized Result (cmpd/DMSO %) at 10 μM” value with AD38 cells was found to be 96%.
Take `CCc1ncc(CNC(=O)c2ccc3c(c2)NC(=O)c2ccccc2S3(=O)=O)s1` [compound 1551]: the activity at 10 µM in series [1] was determined as 0.4%. Further, in the series on AD38 cells, the “AD38 Viability Normalized Result (cmpd/DMSO %) at 10 μM” value is recorded as 99%.
On the same counts, the results for `CC(C)c1ncc(CNC(=O)c2ccc3c(c2)NC(=O)c2ccccc2S3(=O)=O)s1` [compound 1552] are 0.4% and 102%.
In the case of `O=C(NCc1cnc(C(F)(F)F)s1)c1ccc2c(c1)NC(=O)c1ccccc1S2(=O)=O` [compound 1553], in series [1], the activity at 10 µM was 0.5%. The “AD38 Viability Normalized Result (cmpd/DMSO %) at 10 μM” value in the series on AD38 cells was found to be 107%.
For `CC(C)(C)c1ncc(CNC(=O)c2ccc3c(c2)NC(=O)c2ccccc2S3)s1` [compound 1555], the activity at 10 µM in series [1] is 1%. In addition, the “AD38 Viability Normalized Result (cmpd/DMSO %) at 10 μM” value with AD38 cells turned out to be 89%.
On the same counts, the results for `O=C(NCc1cnc(-c2ccc(F)cc2)s1)c1ccc2c(c1)NC(=O)c1ccccc1S2` [compound 1556] are 1.6% and 105%.
Turning to `Cc1ncc(CNC(=O)c2ccc3c(c2)NC(=O)c2ccccc2O3)s1` [compound 1557], in series [1], the activity at 10 µM came out at 0.6%. In addition, the “AD38 Viability Normalized Result (cmpd/DMSO %) at 10 μM” value in the series on AD38 cells is recorded as 98%.
For `CCc1ncc(CNC(=O)c2ccc3c(c2)NC(=O)c2ccccc2O3)s1` [compound 1558], in series [1], the activity at 10 µM came out at 0.5%. Also, the “AD38 Viability Normalized Result (cmpd/DMSO %) at 10 μM” value with AD38 cells was determined as 106%.
On the same counts, the results for `CC(C)c1ncc(CNC(=O)c2ccc3c(c2)NC(=O)c2ccccc2O3)s1` [compound 1559] are 0.7% and 87%.
The corresponding values for `O=C(NCc1cnc(-c2ccc(F)cc2)s1)c1ccc2c(c1)NC(=O)c1ccccc1O2` [compound 1561] are 10.3% and 96%.
As to `O=C(NCc1cnc(-c2ccccc2)s1)c1ccc2c(c1)NC(=O)c1ccccc1O2` [compound 1562], the activity at 10 µM in series [1] came out at 0.9%. Further, the “AD38 Viability Normalized Result (cmpd/DMSO %) at 10 μM” value in the series with AD38 cells is reported as 97%.
The corresponding values for `O=C(O)COc1ncc(CNC(=O)c2ccc3c(c2)NC(=O)c2ccccc2S3(=O)=O)s1` [compound 1580, 2-((5-((5,5-dioxido-11-oxo-10, 11-dihydrodibenzo [b, f] [1, 4]thiazepine-8-carboxamido)methyl)thiazol-2-yl)oxy) acetic acid] are 104% and 102%.
For `O=C(O)COc1ccc(-c2ncc(CNC(=O)c3ccc4c(c3)NC(=O)c3ccccc3S4(=O)=O)s2)cc1` [compound 1581, 2-(4-(5-((5,5-dioxido-11-oxo-10, 11-dihydrodibenzo [b, f] [1, 4]thiazepine-8-carboxamido)methyl)thiazol-2-yl)phenoxy) acetic acid], the activity at 10 µM in series [1] turned out to be 34.4%. Also, in the series with AD38 cells, the “AD38 Viability Normalized Result (cmpd/DMSO %) at 10 μM” value came out at 93%.
For `O=C(O)CNc1ncc(CNC(=O)c2ccc3c(c2)NC(=O)c2ccccc2S3(=O)=O)s1` [compound 1583, (5-((5,5-dioxido-11-oxo-10, 11-dihydrodibenzo [b, f] [1, 4]thiazepine-8-carboxamido)methyl)thiazol-2-yl) glycine], the activity at 10 µM in series [1] amounted to 1%. In addition, in the series with AD38 cells, the “AD38 Viability Normalized Result (cmpd/DMSO %) at 10 μM” value is on record as 0%.
On the same counts, the results for `CN(C)CCOc1ccc(-c2ncc(CNC(=O)c3ccc4c(c3)NC(=O)c3ccccc3S4(=O)=O)s2)cc1` [compound 1584] are 1.4% and 101%.
The corresponding values for `O=C(O)c1ccc(-c2ncc(CNC(=O)c3ccc4c(c3)NC(=O)c3ccccc3S4(=O)=O)s2)cc1` [compound 1585, 4-(5-((5,5-dioxido-11-oxo-10, 11-dihydrodibenzo [b, f] [1, 4]thiazepine-8-carboxamido)methyl)thiazol-2-yl) benzoic acid] are 64.1% and 96%.
Regarding `CN(C)CCOc1ncc(CNC(=O)c2ccc3c(c2)NC(=O)c2ccccc2S3(=O)=O)s1` [compound 1586, N-((2-(2-(dimethylamino)ethoxy)thiazol-5-yl)methyl)-11-oxo-10, 11-dihydrodibenzo [b, f] [1, 4] thiazepine-8-carboxamide 5,5-dioxide], the activity at 10 µM in series [1] stood at 27.9%. Besides, in the series with AD38 cells, the “AD38 Viability Normalized Result (cmpd/DMSO %) at 10 μM” value came to 83%.
On the same counts, the results for `O=C(NCc1cnc(-c2ccc(OCCN3CCOCC3)cc2)s1)c1ccc2c(c1)NC(=O)c1ccccc1S2(=O)=O` [compound 1587] are 2.8% and 99%.
Take `O=C(O)CSc1ncc(CNC(=O)c2ccc3c(c2)NC(=O)c2ccccc2S3(=O)=O)s1` [compound 1589, 2-((5-((5,5-dioxido-11-oxo-10, 11-dihydrodibenzo [b, f] [1, 4]thiazepine-8-carboxamido)methyl)thiazol-2-yl)thio) acetic acid]: in series [1], the activity at 10 µM was determined as 80%. Moreover, the “AD38 Viability Normalized Result (cmpd/DMSO %) at 10 μM” value in the series on AD38 cells is 98%.
The corresponding values for `CN(C)CCSc1ncc(CNC(=O)c2ccc3c(c2)NC(=O)c2ccccc2S3(=O)=O)s1` [compound 1590] are 6.2% and 95%.
As for `Cc1ncc(CNC(=O)c2ccc3c(=O)c4ccccc4c(=O)[nH]c3c2)s1` [compound 1592], the activity at 10 µM in series [1] was 1.3%. Also, the “AD38 Viability Normalized Result (cmpd/DMSO %) at 10 μM” value in the series with AD38 cells came out at 99%.
In the case of `O=C(NCc1cnc(-c2ccccc2)s1)c1ccc2c(=O)c3ccccc3c(=O)[nH]c2c1` [compound 1594], the activity at 10 µM in series [1] stood at 0.9%. Further, the “AD38 Viability Normalized Result (cmpd/DMSO %) at 10 μM” value with AD38 cells is on record as 105%.
In the case of `O=C(NCc1cnc(-c2ccc(O)cc2)s1)c1ccc2c(c1)NC(=O)c1ccccc1S2(=O)=O` [compound 1595, N-((2-(4-hydroxyphenyl)thiazol-5-yl)methyl)-11-oxo-10, 11-dihydrodibenzo [b, f] [1, 4] thiazepine-8-carboxamide 5,5-dioxide], the activity at 10 µM in series [1] was 0.3%. Also, in the series with AD38 cells, the “AD38 Viability Normalized Result (cmpd/DMSO %) at 10 μM” value was 109%.
